Data on twelve molecules can be found in EP1770089A1, “Pyranodibenzofuran derivatives with antifungal and antibacterial activity” (priority 2005, dated 2007).

Holding throughout (format): cell-based
Assay [1] has as its system Mycobacterium smegmatis mc^2155. Briefly: Mycobacterial growth inhibition in liquid culture (MIC99). The settings on record: two-day's growth at 37°C, 99% decrease vs DMSO control; for MIC99: Mycolicibacterium smegmatis, MC2155|MC^2155, 48 h.
In assay [2] the test system is L1210 cells. Briefly: Cytotoxicity, MTA (Microculture Tetrazolium Assay) test. The conditions noted are these: cytotoxicity on L1210 cells. The protocol: The cytotoxicity of compounds 5, 9, and 10-21 was determined in L1210 cells using the MTA (Microculture Tetrazolium Assay) test.
The test system of assay [3] is Mycobacterium tuberculosis H37Rv. Briefly: Mycobacterial growth inhibition in liquid culture, CFU plating (MIC99). The settings on record: H37Rv, three weeks growth in 7H9, CFU on 7H11, NI = no inhibition at 1 mg/mL; for MIC99: Mycobacterium tuberculosis, H37RV, 504 h, read-out: MIC99 on M. tuberculosis.
Assay [4] relates to Candida albicans. The assay is described as follows: In vitro activity (MIC99) against Candida albicans. The settings on record: > 99 % inhibition of growth; for MIC99: Candida albicans, read-out: MIC99 C. albicans. The protocol: The antifungal activity of compounds 5, 9, and 11-22 against Candida albicans was analyzed by the measure of the MIC99 concentration (see Table 1). Table 1. In Vitro Activity against Candida albicans of pyranodibenzofuran derivatives

Setting [5] is: read-out: MIC99 on M. smegmatis, mc2155.
Setting [6] is: mc2155, read-out: MIC99 on M. smegmatis.

In brackets after ≈: the same amount, converted by molar mass. Read-outs that look alike come from different tables or passages of the source.

One may read the IC50 as the concentration that gives 50% inhibition. Consider `CC(=O)O[C@@H]1c2c(ccc3oc4ccccc4c23)OC(C)(C)[C@H]1OC(C)=O` (racemic) [Compound 19, (±)trans-1,2,-diacetoxy-1,2-dihydro-3,3-dimethyl-3H-benzofuro[3,2-f][1]benzopyran], for which the “MIC99 on M. smegmatis” value in assay [1] (mc2155) is 180 µg/mL (≈ 489 µM). This molecule displayed a concentration for half-maximal inhibition (IC50) in assay [2] of 5.5005 µg/mL (≈ 14.9 µM). The “MIC99 on M. tuberculosis” value in assay [3] is recorded as “NI (No inhibition observed at the highest concentration tested (1 mg/mL))”. Besides, in assay [4], the “MIC99 C. albicans” value is greater than 300 µg/mL.
For the molecule `CC1(C)Oc2ccc3oc4ccccc4c3c2[C@@H](O)[C@@H]1O` (racemic) [Compound 15, (±)trans-1,2,-dihydro-1,2-dihydroxy-3,3-dimethyl-3H-benzofuro[3,2-f][1]benzopyran], the “MIC99 on M. smegmatis” value in assay [1] (mc2155) was determined as 30 µg/mL (≈ 106 µM). In assay [2], this molecule displayed an IC50 of 12.3405 µg/mL (≈ 43.4 µM). Moreover, the “MIC99 on M. tuberculosis” value in assay [3] was “NI (No inhibition observed at the highest concentration tested (1 mg/mL))”. The “MIC99 C. albicans” value in assay [4] is greater than 300 µg/mL.
In the case of `CC(=O)OC1C(=O)c2c(ccc3oc4ccccc4c23)OC1(C)C` (racemic) [Compound 20, (±)2-acetoxy-2,3-dihydro-2-hydro-3,3-dimethyl-1H-benzofuro[3,2-f][1]benzopyran-1-one], in assay [2], the IC50 was determined as 28.5 µg/mL (≈ 87.9 µM). Besides, in assay [4], the “MIC99 C. albicans” value is greater than 280 µg/mL.
The MIC99 is the lowest concentration that inhibits either 99% of growth or 99% of the strains tested, depending on the study. For the molecule `CC(=O)O[C@H]1c2cc3oc4ccccc4c3cc2OC(C)(C)[C@H]1OC(C)=O` (racemic) [Compound 17, (±)cis-3,4-diacetoxy-3,4-dihydro-2,2-dimethyl-2H-benzofuro[2,3-g]-[1]-benzopyran], in assay [2] (Mus musculus, read-out: IC50), the concentration for half-maximal inhibition (IC50) was 8.52 µg/mL (≈ 23.1 µM). The MIC99 in assay [4] is greater than 400 µg/mL.
Regarding `CC1(C)Oc2ccc3oc4ccccc4c3c2[C@@H](O)[C@H]1O` (racemic) [Compound 12, (±)cis-1,2-dihydro-1,2-dihydroxy-3,3-dimethyl-3H-benzofuro[3,2-f][1]benzopyran], the MIC99 in assay [1] (setting [5]) is 30 to 60 µg/mL (≈ 106 to 211 µM); in assay [1] (setting [6]), 30 µg/mL (≈ 106 µM); in assay [3], 60 µg/mL (≈ 211 µM); in assay [4], greater than 160 µg/mL. Moreover, in assay [2] (Mus musculus, read-out: IC50), the IC50 is 1.3 µg/mL (≈ 4.57 µM).
In assay [2], `CC(=O)CC1(O)C(=O)c2c(ccc3oc4ccccc4c23)OC1(C)C` (racemic) [Compound 14, (±)2,3-dihydro-2-hydroxy-3,3-dimethyl-2-(2-oxopropyl)-1Hbenzofuro[3,2f][1]benzopyran-1-one] gave an IC50 of 18.981 µg/mL (≈ 56.1 µM). Also, in assay [4], the “MIC99 C. albicans” value is 150 µg/mL (≈ 443 µM).
In the case of `CC1(C)Oc2ccc3oc4ccccc4c3c2C(=O)C1O` (racemic) [Compound 13, (±)2,3-dihydro-2-hydroxy-3,3-dimethyl-1H-benzofuro[3,2-f][1]benzopyran-1-one], in assay [2] (Mus musculus, read-out: IC50), the IC50 turned out to be 5.04 µg/mL (≈ 17.9 µM). Moreover, the MIC99 in assay [4] was greater than 330 µg/mL.
For the molecule “(±)cis-4H-3a,4,12b-trihydro-2,2-dimethyl-1,3-dioxolo[4,5-h]benzofuro[3,2-g]benzopyran [Compound 21]”, the IC50 in assay [2] was determined as 12.8535 µg/mL. The “MIC99 C. albicans” value in assay [4] is greater than 400 µg/mL.
As for `CC(=O)O[C@@H]1c2c(ccc3oc4ccccc4c23)OC(C)(C)[C@@H]1OC(C)=O` (racemic) [Compound 18, (±)cis-1,2-diacetoxy-1,2-dihydro-3,3-dimethyl-3H-benzofuro[3,2-f][1]benzopyran], the IC50 in assay [2] (Mus musculus, read-out: IC50) was determined as 9.35 µg/mL (≈ 25.4 µM). Besides, in assay [4], the MIC99 was greater than 300 µg/mL.
Turning to `CC1(C)Oc2cc3c(cc2[C@H](O)[C@@H]1O)oc1ccccc13` (racemic) [Compound 11, (±)cis-3,4-dihydro-3,4-dihydroxy-2,2-dimethyl-2H-benzofuro[2,3-g]-[1]-benzopyran], the MIC99 is 30 to 60 µg/mL (≈ 106 to 211 µM) in assay [1] (setting [5]), 60 µg/mL (≈ 211 µM) in assay [1] (setting [6]), greater than 1000 µg/mL in assay [3] and 27 µg/mL (≈ 95 µM) in assay [4]. Further, the IC50 in assay [2] (Mus musculus, read-out: IC50) was found to be 13 µg/mL (≈ 45.7 µM).
Take `C=C1Oc2ccc3oc4ccccc4c3c2C1(C)C` [Compound 10, 1,2-dihydro-1,1-dimethyl-2-methylenebenzofuro[5,4-b]benzofuran]: the IC50 in assay [2] (Mus musculus, read-out: IC50) turned out to be 3.71 µg/mL (≈ 14.8 µM). Also, the MIC99 in assay [4] is greater than 300 µg/mL.
As for `Clc1ccc(COC(Cn2ccnc2)c2ccc(Cl)cc2Cl)c(Cl)c1` (stereo not drawn) [Miconazole, reference compound], the MIC99 in assay [4] lay in the range of 0.25 to 60 µg/mL (≈ 0.601 to 144 µM).
